# Reference: EP1673349B1, “BENZIMIDAZOLE DERIVATIVES: PREPARATION AND PHARMACEUTICAL APPLICATIONS” (priority 2003, dated 2005)
# Like-named read-outs stand apart in the source and are kept apart here.
# Experiments:
# [1] = molecular target: HDAC1 enzyme (Homo sapiens, UniProt Q13547); assay: In vitro HDAC assay (BIOMOL fluorescent-based HDAC activity assay), HDAC1; format: biochemical; details: Table 3; read-out: HDAC1 Enzyme Activity IC50
# Protocol: (§1) Expression of GST-HDAC1 or HTGST-HDAC8 was done by infecting SF9 cells (Invitrogen Pte Ltd) with pDEST20-HDAC1 or pFASTBAC-GST-HDAC8 baculovirus at MOI=1 for 48 h. Soluble cell lysate was incubated with pre-equilibrated Glutathione Sepharose 4B beads (Amersham) at 4°C for 2 h. The beads were washed with PBS buffer for 3 times. The GST-HDAC1 protein or GST-HDAC8 protein was eluted by elution buffer containing 50 mM Tris, pH8.0, 150mM NaCl, 1% Triton X-100 and 10mM or 20mM reduced Glutathione. The purified GST-HDAC1 protein or purified GST-HDAC8 protein was dialyzed with HDAC storage buffer containing 10mM Tris, pH7.5, 100mM NaCl and 3mM MgCl2. 20% Glycerol was added to purified GST-HDAC1 protein or purified GST-HDAC8 before storage at -80°C.
# (§2) The assay has been carried, out in 96 well format and the BIOMOL fluorescent-based HDAC activity assay has been applied. […] Flur de lys Developer was added and the reaction was incubated for 10 min. Briefly, deacetylation of the substrate sensitizes it to the developer, which then generates a fluorophore (symbol). The fluorophore is excited with 360 nm light and the emitted light (460 nm) is detected on a fluorometric plate reader (Tecan Ultra Microplate detection system, Tecan Group Ltd.).
# (§3) The analytical software, Prism 3.0 has been used to generate IC50 from a series of data.
# [2] = molecular target: HDAC8 enzyme; assay: In vitro HDAC assay (BIOMOL fluorescent-based HDAC activity assay), HDAC8; format: biochemical, human; details: Table 3; read-out: HDAC8 Enzyme Activity IC50
# Protocol: as §1, §2, §3
# [3] = system: Colo205; assay: Cell-based proliferation assay (cyquant), Colo205; design: species or system human; details: Table 4, 96 h treatment;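 also: Colo205 cells exposed for 96 h to a range of compound concentrations, growth read by CyQUANT, GI50 taken from plotted dose-response curves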
# Protocol: (§4) Human colon cancer cell lines (Colo205 and HCT116), human breast cancer cell lines (MDA-MB435 and MDA-MB231), and human lung cancer cell line (A549) were obtained from ATCC. […] MDA-MB435 cells were cultivated in DMEM containing 2 mM L-Glutamine, 5% FBS. HCT116 cells were cultivated in IMEM containing 2 mM L-Glutamine, 5% FBS. A549 and Colo205 cells were seeded in 96-wells plate at 2000 and 5000 cells per well respectively. MDA-MB435, HCT116, MDA-MB231 cells were seeded in 96-wells plate at 6000 cells per well. The plates were incubated at 37°C, 5% CO2, for 24 h. Cells, were treated with compounds at various concentration for 96 h. Cell growth was then monitored using cyquant cell proliferation assay (Invitrogen Pte Ltd). Dose response curves were plotted to determine GI50 values for the compounds using XL-fist.
# [4] = system: MDA-MB435; assay: Cell-based proliferation assay (cyquant), MDA-MB435; design: species or system human; details: Table 4, 96 h treatment;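 also: GI50 taken from dose–response curves over a range of compound concentrations, with cell growth quantified by the CyQUANT proliferation assay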
# Protocol: as §4
# Sequence of HDAC1 enzyme (Q13547 whole entry): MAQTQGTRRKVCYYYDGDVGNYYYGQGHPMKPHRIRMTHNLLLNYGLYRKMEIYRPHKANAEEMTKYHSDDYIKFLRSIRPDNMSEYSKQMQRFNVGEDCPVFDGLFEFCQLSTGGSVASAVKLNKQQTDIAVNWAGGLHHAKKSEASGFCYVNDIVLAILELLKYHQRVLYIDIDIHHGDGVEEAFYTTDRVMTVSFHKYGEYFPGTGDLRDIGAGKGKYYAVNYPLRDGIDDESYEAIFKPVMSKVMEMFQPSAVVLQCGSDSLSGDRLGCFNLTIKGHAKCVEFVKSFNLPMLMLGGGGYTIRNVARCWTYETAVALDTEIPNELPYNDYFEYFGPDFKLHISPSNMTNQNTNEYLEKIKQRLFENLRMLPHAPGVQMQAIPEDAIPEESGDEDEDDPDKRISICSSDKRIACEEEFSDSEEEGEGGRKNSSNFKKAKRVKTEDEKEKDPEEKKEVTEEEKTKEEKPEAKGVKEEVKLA
smiles,measurement,setting,value
CC(C)c1nc2cc(/C=C/C(=O)NO)ccc2n1CCCO [Compound 46],IC50,[1],1670 nM
"O=C(NO)c1ccc2c(c1)nc(CCc1ccccc1)n2CCCO [Compound 40, 1-(3-Hydroxy-prorpyl)-2-phenethyl-1H-benzimidazol-5-carboxylic acid hydroxyamide]",IC50,[1],3300 nM
same,IC50,[2],441 nM
CN(C)CC(C)(C)Cn1c(CCc2ccc(F)cc2)nc2cc(/C=C/C(=O)NO)ccc21 [Compound 84],IC50,[1],54 nM
"CCCCCCCCc1nc2cc(/C=C/C(=O)NO)ccc2n1CCCO [Compound 23, N-Hydroxy-3-[1-(3-hydroxy-propyl)-2-octyl-1H-benzimidazol-5-yl]-acrylamide]",IC50,[2],402 nM
same,GI50,"[3]; Homo sapiens, COLO 205, 96 h",3650 nM
same,GI50,"[4]; Homo sapiens, MDA-MB-435",3720 nM
"O=C(/C=C/c1ccc2c(c1)ncn2Cc1ccccc1)NO [Compound 35, N-Hydroxy-3-(1-Benzyl-1H-benzimidazol-5-yl)-acrylamide]",IC50,[2],412 nM
same,GI50,"[3]; Homo sapiens, COLO 205, 96 h",1890 nM
same,GI50,"[4]; Homo sapiens, MDA-MB-435",6760 nM
Cn1c(CNC(=O)Cc2ccc(F)cc2)nc2cc(/C=C/C(=O)NO)ccc21 [Compound 69],IC50,[1],146 nM
"O=C(/C=C/c1ccc2c(c1)nc(CCc1ccccc1)n2CCCn1ccnc1)NO [Compound 56, N-Hydroxy-3-[1-(-3-imidazol-1-yl-propyl)-2-phenethyl-1H-benzimidazol-5-yl]-acrvlamide]",IC50,[1],158 nM
"O=C(/C=C/c1ccc2c(c1)nc(-c1ccncc1)n2CCO)NO [Compound 10, N-Hydroxy-3-[1-(2-hydroxy-ethyl)-2-(4-pyridyl)-1H-benzimidazol-5-yl]-acrylamide]",IC50,[2],883 nM
CCn1c(CCNC(=O)COc2ccccc2)nc2cc(/C=C/C(=O)NO)ccc21 [Compound 73],IC50,[1],560 nM
O=C(/C=C/c1ccc2c(c1)nc(CCc1ccccc1)n2CCc1ccccn1)NO [Compound 18],IC50,[1],438 nM
same,IC50,[2],290 nM
O=C(/C=C/c1ccc2c(c1)nc(CCc1ccccc1)n2CC(O)CO)NO (stereo not drawn) [Compound 8],IC50,[1],286 nM
same,IC50,[2],454 nM
"O=C(O)CCn1c(CCc2ccccc2)nc2cc(/C=C/C(=O)NO)ccc21 [Compound 32, 3-[5-(2-Hydrocarbamoyl-vinyl)-2-phenethyl-benzimidazol-1-yl]-propionic acid]",IC50,[1],2210 nM
same,IC50,[2],1890 nM
CC(C)Cc1nc2cc(/C=C/C(=O)NO)ccc2n1CCc1ccccn1 [Compound 22],IC50,[1],1330 nM
same,IC50,[2],234 nM
"O=C(/C=C/c1ccc2c(c1)ncn2CCc1ccccn1)NO [Compound 42, N-Hydroxy-3-[1-(2-pyridin-2-yl-ethyl)-1H-benzimidazol-5-yl]-acrylamide]",GI50,"[3]; Homo sapiens, COLO 205",14400 nM
same,GI50,"[4]; Homo sapiens, MDA-MB-435",15800 nM
"CCN(CC)CCn1c(CCc2ccccc2)nc2cc(/C=C/C(=O)NO)ccc21 [Compound 66, N-Hydroxy-3-[1-(2-diethylamino-ethyl)-2-phenethyl-1H-benzimidazol-5-yl]-acrylamide]",IC50,[2],255 nM
same,GI50,"[3]; Homo sapiens, COLO 205, 96 h",220 nM
CCn1c(CCNC(=O)Cc2ccccc2)nc2cc(/C=C/C(=O)NO)ccc21 [Compound 70],IC50,[1],923 nM
same,GI50,[3]; read-out: GI50 (Colo 205),2900 nM
COc1cc(Cn2c(CCc3ccccc3)nc3cc(CCC(=O)NO)ccc32)cc(OC)c1OC [Compound 45],IC50,[1],167 nM
same,GI50,[3]; read-out: GI50 (Colo 205),2410 nM
same,GI50,[4],1900 nM
CN1CCN(CCCn2c(CCc3ccccc3)nc3cc(/C=C/C(=O)NO)ccc32)CC1 [Compound 81],IC50,[1],1600 nM
CCn1c(CCNS(=O)(=O)c2ccccc2)nc2cc(/C=C/C(=O)NO)ccc21 [Compound 71],IC50,[1],167 nM
"CC(C)Cc1nc2cc(CCC(=O)NO)ccc2n1CCCO [Compound 29, N-Hydroxy-3-[1-(3-Hydroxy-propyl)-2-isobutyl-1H-benzimidazol-5-yl]-propionamide]",IC50,[1],49100 nM
same,IC50,[2],34000 nM
CCn1c(CN(Cc2ccccc2)Cc2ccccc2)nc2cc(/C=C/C(=O)NO)ccc21 [Compound 68],IC50,[1],294 nM
"COc1cc(Cn2c(CCc3ccccc3)nc3cc(C4CC4C(=O)NO)ccc32)cc(OC)c1OC (stereo not drawn) [Compound 88, 2-[2-Phenethyl-1-(3,4,5-trimethoxy-benzyl)-1H-benzimidazol-5-yl]-cyclopropanecarboxylic acid hydroxyamide]",IC50,[1],297 nM
same,GI50,"[3]; Homo sapiens, COLO 205, 96 h",1260 nM
Cn1c(CN(Cc2ccccc2)Cc2ccccc2)nc2cc(/C=C/C(=O)NO)ccc21 [Compound 61],IC50,[1],196 nM
O=C(/C=C/c1ccc2c(c1)nc(COCc1ccccc1)n2CCc1cccnc1)NO [Compound 28],IC50,[1],206 nM
same,IC50,[2],300 nM
"CN(C)CCCn1c(CCc2ccccc2)nc2cc(/C=C/C(=O)NO)ccc21 [Compound 63, N-Hydroxy-3-[1-(3-dimethylamino-propyl)-2-phenethyl-1H-benzimidazol-5-yl]-acrylamide]",GI50,"[3]; Homo sapiens, COLO 205, 96 h",2000 nM
CN(C)CC(C)(C)Cn1c(CCCc2ccccc2)nc2cc(/C=C/C(=O)NO)ccc21 [Compound 83],IC50,[1],71 nM
"CN(C)CC(C)(C)Cn1c(CCc2cccnc2)nc2cc(/C=C/C(=O)NO)ccc21 [Compound 86, N-Hydroxy-3-[1-(3-Dimethylamino-2,2-dimethyl-propyl)-2-(2-pyridin-3-yl-ethyl)-1H-benzimidazol-5-yl]acrylamide]",GI50,"[3]; Homo sapiens, COLO 205",13100 nM
C=CCn1c(CCc2ccccc2)nc2cc(/C=C/C(=O)NO)ccc21 [Compound 79],IC50,[1],1260 nM
"CCCn1cnc2cc(/C=C/C(=O)NO)ccc21 [Compound 37, N-Hydroxy-3-(1-propyl-1H-benzimidazol-5-yl)-acrylamide]",GI50,"[3]; Homo sapiens, COLO 205",7820 nM
same,GI50,"[4]; Homo sapiens, MDA-MB-435",7900 nM
"O=C(/C=C/c1ccc2c(c1)nc(CCc1ccccc1)n2CCc1ccccc1)NO [Compound 26, N-Hydroxy-3-(1,2-Diphenethyl-1H-benzimidazol-5-yl]-acylamide]",GI50,"[3]; Homo sapiens, COLO 205, 96 h",8790 nM
same,GI50,"[4]; Homo sapiens, MDA-MB-435",6670 nM
"O=C(/C=C/c1ccc2[nH]c(CCc3ccccc3)nc2c1)NO [Compound 50, N-Hydroxy-3-(2-phenethyl-1H-benzimidazol-5-yl)-acrylamide]",GI50,"[3]; Homo sapiens, COLO 205, 96 h",4290 nM
same,GI50,"[4]; Homo sapiens, MDA-MB-435",5190 nM
O=C(/C=C/c1ccc2c(c1)nc(CCc1ccccc1)n2CCO)NO [Compound 77],IC50,[1],570 nM
O=C(/C=C/c1ccc2c(c1)nc(CCc1ccccc1)n2C1CCN(Cc2ccccc2)CC1)NO [Compound 76],IC50,[1],1030 nM
"CCn1cnc2cc(/C=C/C(=O)NO)ccc21 [Compound 39, N-Hydroxy-3-(1-Ethyl-1H-benzimidazol-5-yl)-acrylamide]",GI50,"[3]; Homo sapiens, COLO 205, 96 h",11700 nM
same,GI50,"[4]; Homo sapiens, MDA-MB-435",12000 nM
COCCCn1c(CCc2ccccc2)nc2cc(/C=C/C(=O)NO)ccc21 [Compound 15],IC50,[1],206 nM
same,IC50,[2],313 nM
COc1ccc(CNCc2nc3cc(/C=C/C(=O)NO)ccc3n2C)cc1 [Compound 62],IC50,[1],234 nM
CC(Cc1nc2cc(/C=C/C(=O)NO)ccc2n1CCc1cccnc1)c1ccccc1 (stereo not drawn) [Compound 41],IC50,[1],195 nM
same,IC50,[2],159 nM
"CC(C)Cc1nc2cc(/C=C/C(=O)NO)ccc2n1Cc1ccccc1 [Compound 34, N-Hydroxy-3-(1-Benzyl-2-isobutyl-1H-benzimidazol-5-yl)-acrylamide]",IC50,[2],846 nM
"CN(C)CCCCn1c(CCc2ccccc2)nc2cc(/C=C/C(=O)NO)ccc21 [Compound 57, N-Hydroxy-3-[1-(4-dimethylamino-butyl)-2-phenethyl-1H-benzimidazol-5-yl]-acrylamide]",GI50,"[3]; Homo sapiens, COLO 205, 96 h",1110 nM
same,GI50,"[4]; Homo sapiens, MDA-MB-435",1390 nM
"O=C(/C=C/c1ccc2c(c1)nc(CCc1ccccc1)n2CCCN1CCCC1)NO [Compound 82, N-Hydroxy-3-[2-phenethyl-1-(3-pyrrolidin-1-yl-propyl)-1H-benzimidazol-5-yl]-acrylamide]",GI50,"[3]; Homo sapiens, COLO 205, 96 h",720 nM
"Cn1c(CNCc2ccccc2)nc2cc(/C=C/C(=O)NO)ccc21 [Compound 60, N-Hydroxy-3-[2-(benzylamino-methyl)-1-methyl-1H-benzimidazol-5-yl]-acrylamide]",GI50,"[3]; Homo sapiens, COLO 205",2470 nM
same,GI50,"[4]; Homo sapiens, MDA-MB-435",3600 nM
"CCn1c(CCc2ccccc2)nc2cc(/C=C/C(=O)NO)ccc21 [Compound 38, N-Hydroxy-3-(1-Ethyl-2-phenethyl-1H-benzimidazol-5-yl)-acrylamide]",GI50,"[3]; Homo sapiens, COLO 205, 96 h",1470 nM
same,GI50,"[4]; Homo sapiens, MDA-MB-435",1530 nM
"Cn1c(CCc2ccccc2)nc2cc(/C=C/C(=O)NO)ccc21 [Compound 48, N-Hydroxy-3-(1-methyl-2-phenethyl-1H-benzimidazol-5-yl)-acrylamide]",GI50,"[3]; Homo sapiens, COLO 205, 96 h",1450 nM
same,GI50,"[4]; Homo sapiens, MDA-MB-435",1780 nM
O=C(/C=C/c1ccc2c(c1)nc(CCc1ccccc1)n2CCCCCO)NO [Compound 78],IC50,[1],> 100000 nM
CC(C)OCCCn1c(CCc2ccccc2)nc2cc(/C=C/C(=O)NO)ccc21 [Compound 80],IC50,[1],1690 nM
"CCn1c(CCNCc2ccccc2)nc2cc(/C=C/C(=O)NO)ccc21 [Compound 74, N-Hydroxy-3-[2-(2-benzylamino-ethyl)-1-ethyl-1H-benzimidazol-5-yl]-acrylamide]",GI50,"[3]; Homo sapiens, COLO 205",2070 nM
"O=C(/C=C/c1ccc2c(c1)nc(-c1ccccn1)n2CCCO)NO [Compound 13, N-Hydroxy-3-[1-(3-hydroxy-propyl)-2-(2-pyridyl)-1H-benzimidazol-5-yl]-acylamide]",IC50,[1],385 nM
same,IC50,[2],141 nM
"COc1ccc(-c2nc3cc(/C=C/C(=O)NO)ccc3n2CCO)cc1 [Compound 5, N-Hydroxy-3-[1-(2-hydroxy-ethyl)-2-(4-methoxy-phenyl)-1H-benzimidazole-5-yl]-acrylamide]",IC50,[2],401 nM
same,GI50,"[3]; Homo sapiens, COLO 205",> 100000 nM
CC(C)(C)Cn1c(CCc2ccccc2)nc2cc(/C=C/C(=O)NO)ccc21 [Compound 75],GI50,[3]; read-out: GI50 (Colo 205),2880 nM
O=C(/C=C/c1ccc2c(c1)ncn2CCN1CCCCC1)NO [Compound 90],IC50,[1],166 nM
"Cn1c(CCCc2ccccc2)nc2cc(/C=C/C(=O)NO)ccc21 [Compound 52, N-Hydroxy-3-[1-methyl-2-(3-phenyl-propyl)-1H-benzimidazol-5-yl]-acrylamide]",GI50,"[3]; Homo sapiens, COLO 205",2040 nM
same,GI50,"[4]; Homo sapiens, MDA-MB-435",3580 nM
